In ChEMBL document CHEMBL1201862, “PubChem BioAssay data set” (2004):
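Cells were grown in 96-well plates and exposed to each compound for 48 hours at five concentrations; endpoints were interpolated linearly between bracketing concentrations, or set to the highest concentration if not reached. GI50 = concentration required for 50% inhibition of growth.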 Activity calls are given as the source filed them. Rule as the data show it: active = GI50 up to about 1.1 µM and inactive = higher.

Tests used:
Assay in all cases: NCI tumour cell line growth inhibition, 48 h
MDA-MB-231 = system: MDA-MB-231
MCF7 = system: MCF7
SF-295 = system: SF-295
DU-145 = system: DU-145
SNB-19 = system: SNB-19
EKVX = system: EKVX
SF-268 = system: SF-268
786-0 = system: 786-0
SW-620 = system: SW-620
Malme-3M = system: Malme-3M
SK-OV-3 = system: SK-OV-3
NCI-H23 = system: NCI-H23
RXF 393 = system: RXF 393
HCT-15 = system: HCT-15
NCI-H226 = system: NCI-H226
MDA-MB-435 = system: MDA-MB-435
HL-60 = system: HL-60
HOP-62 = system: HOP-62
HCT-116 = system: HCT-116
RPMI-8226 = system: RPMI-8226

Compound | GI50 (MDA-MB-231) | GI50 (MCF7) | GI50 (SF-295) | GI50 (DU-145) | GI50 (SNB-19) | GI50 (EKVX) | GI50 (SF-268) | GI50 (786-0) | GI50 (SW-620) | GI50 (Malme-3M) | GI50 (SK-OV-3) | GI50 (NCI-H23) | GI50 (RXF 393) | GI50 (HCT-15) [µM] | GI50 (NCI-H226) | GI50 (MDA-MB-435) | GI50 (HL-60) | GI50 (HOP-62) | GI50 (HCT-116) | GI50 (RPMI-8226)
C[N+](C)(C)CC1CCCC(C[N+](C)(C)C)C1=O (stereo not given) | 2.01 µM (inactive) | 0.506 µM (active) | 29.7 µM (inactive) | 5.75 µM (inactive) | 19 µM (inactive) | 1.58 µM (inactive) | 7.31 µM (inactive) | 0.661 µM (active) | 0.0726 µM (active) | 0.212 µM (active) | 13.7 µM (inactive) | 2.42 µM (inactive) | 1.69 µM (inactive) | 0.308 | 15.6 µM (inactive) | 1.8 µM (inactive) | 0.272 µM (active) | 23.3 µM (inactive) | 0.804 µM (active) | 0.0579 µM (active)
COc1cccc(-c2nnc3c(-c4ccccc4)nc4ccccc4n23)c1 | 24.5 µM (inactive) | 14.4 µM (inactive) | 35.6 µM (inactive) | 42.5 µM (inactive) | > 100 µM (inactive) | 55.2 µM (inactive) | > 100 µM (inactive) | 49.1 µM (inactive) | 16.4 µM (inactive) | 10.9 µM (inactive) | 73.8 µM (inactive) | 30.1 µM (inactive) | 8.38 µM (inactive) | 7.23 | 57.3 µM (inactive) | 2.91 µM (inactive) | 7.18 µM (inactive) | 58.1 µM (inactive) | 19.7 µM (inactive) | 3.45 µM (inactive)
N/N=C1\C(OC(=O)Nc2cccc(Cl)c2)=Nc2ccccc21 | 12.1 µM (inactive) | 8.51 µM (inactive) | 2.35 µM (inactive) | 8.39 µM (inactive) | 7.13 µM (inactive) | 4.05 µM (inactive) | 12.1 µM (inactive) | 6.64 µM (inactive) | 9.12 µM (inactive) | 12.1 µM (inactive) | 7.43 µM (inactive) | 5.07 µM (inactive) | 13 µM (inactive) | 6.89 | 15.3 µM (inactive) | 8.57 µM (inactive) | 13.6 µM (inactive) | 2.75 µM (inactive) | 4.67 µM (inactive) | 2.9 µM (inactive)
